Experimental findings from patent US20250171438A1 (Agios Pharmaceuticals, Inc., priority 2022, published 2025) are described below.

The term AC50 denotes the concentration giving half of the maximal activity seen.

Counter-ions that a name gives are not always drawn. A value given as a limit tells only on which side of the number the result lay.

For one assay, the target named is T1, human PAH with the R408W mutation (Homo sapiens, UniProt P00439, R408W).
T1 construct: expressed in transfected cells
T1 sequence (P00439 1-452 R408W): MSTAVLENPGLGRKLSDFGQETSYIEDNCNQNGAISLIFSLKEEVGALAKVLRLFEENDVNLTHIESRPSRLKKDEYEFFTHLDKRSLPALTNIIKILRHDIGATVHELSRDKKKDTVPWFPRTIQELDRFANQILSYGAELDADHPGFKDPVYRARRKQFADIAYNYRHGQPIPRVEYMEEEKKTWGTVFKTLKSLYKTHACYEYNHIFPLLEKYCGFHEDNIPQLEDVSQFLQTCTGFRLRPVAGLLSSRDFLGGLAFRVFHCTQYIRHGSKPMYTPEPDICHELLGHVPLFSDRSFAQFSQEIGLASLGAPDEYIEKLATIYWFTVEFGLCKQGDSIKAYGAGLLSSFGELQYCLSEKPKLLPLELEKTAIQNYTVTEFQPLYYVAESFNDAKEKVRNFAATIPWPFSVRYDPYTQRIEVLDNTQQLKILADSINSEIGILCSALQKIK
The assay is described as follows: Cell Based Phenylalanine Flux Assay. As to conditions: A375 cells expressing human R408W PAH; 24 hrs compound incubation; 13C-Tyrosine by LC-MS; average where tested multiple times; read-out: AC50.
On to `O=C(CCC1CC1)N1CCc2[nH]cnc2[C@@H]1c1nc2ccc(Br)cc2s1` [Example 1146, (R)-1-(4-(6-bromobenzo[d]thiazol-2-yl)-6,7-dihydro-1H-imidazo[4,5-c]pyridin-5(4H)-yl)-3-cyclopropylpropan-1-one], for which the AC50 is 0.5 to 1 µM. The same measure, in the same setting: the same measure for `O=C(CCc1nnc(Br)s1)N1CCc2[nH]cnc2[C@H]1c1nc2ccccc2s1` [Example 1089]: 0.5 to 1 µM. The same measure, in the same setting: the same measure for `CC(C)(c1nc(C(F)F)c(C(=O)N2CCc3[nH]cnc3[C@H]2c2nc3c(F)cccc3s2)o1)S(C)(=O)=O` [Example 2005]: less than 0.5 µM; for `CN(C)c1nnc(C(=O)N2CCc3[nH]cnc3[C@@H]2c2nc3ccccc3s2)o1` [Example 1610, (R)-(4-(benzo[d]thiazol-2-yl)-6,7-dihydro-1H-imidazo[4,5-c]pyridin-5(4H)-yl)(5-(dimethylamino)-1,3,4-oxadiazol-2-yl)methanone]: 1 to 5 µM; for `O=C(c1sc(C2CC2)nc1Cl)N1CCc2[nH]cnc2[C@@H]1c1nc2c(F)cccc2s1` [Example 1632, (R)-(4-chloro-2-cyclopropylthiazol-5-yl)(4-(4-fluorobenzo[d]thiazol-2-yl)-6,7-dihydro-1H-imidazo[4,5-c]pyridin-5(4H)-yl)methanone]: 1 to 5 µM. With `Cc1ccc(-c2nnc(C(=O)N3CCc4[nH]cnc4[C@H]3c3nc4c(F)cccc4s3)o2)nc1` [Example 1904, (S)-(4-(4-fluorobenzo[d]thiazol-2-yl)-6,7-dihydro-1H-imidazo[4,5-c]pyridin-5(4H)-yl)(5-(5-methylpyridin-2-yl)-1,3,4-oxadiazol-2-yl)methanone], the concentration at half-maximal activity (AC50) was less than 0.5 µM. The same measure, in the same setting: the value for `O=C(c1ncc(Cl)s1)N1CCc2[nH]cnc2[C@@H]1c1nc2ccc(Br)cc2[nH]1` [Example 976, (R)-(4-(6-bromo-1H-benzo[d]imidazol-2-yl)-6,7-dihydro-1H-imidazo[4,5-c]pyridin-5(4H)-yl)(5-chlorothiazol-2-yl)methanone] was more than 5 µM. Turning to `C[C@H]1CN(C(=O)c2nnc(-c3ccc(F)cn3)o2)[C@H](c2nc3ccccc3s2)c2nc[nH]c21` [Example 1756, ((4S,7S)-4-(benzo[d]thiazol-2-yl)-7-methyl-6,7-dihydro-1H-imidazo[4,5-c]pyridin-5(4H)-yl)(5-(5-fluoropyridin-2-yl)-1,3,4-oxadiazol-2-yl)methanone], the AC50 is 1 to 5 µM. For `O=C(c1nnc(C2CC2)o1)N1CCc2[nH]cnc2[C@@H]1c1nc2c(F)cccc2s1` [Example 1444, (R)-(5-cyclopropyl-1,3,4-oxadiazol-2-yl)(4-(4-fluorobenzo[d]thiazol-2-yl)-6,7-dihydro-1H-imidazo[4,5-c]pyridin-5(4H)-yl)methanone], the AC50 was 1 to 5 µM.

For the molecule `O=C(c1nnc(OCCC(F)(F)F)o1)N1CCc2[nH]cnc2[C@H]1c1nc2ccccc2s1` [Example 1790], the AC50 is 0.5 to 1 µM. On the same count and under the same terms, the value for `O=C(c1ocnc1-c1ccccc1)N1CCc2[nH]cnc2[C@@H]1c1nc2ccccc2s1` [Example 1441, (R)-(4-(benzo[d]thiazol-2-yl)-6,7-dihydro-1H-imidazo[4,5-c]pyridin-5(4H)-yl)(4-phenyloxazol-5-yl)methanone] was more than 5 µM; that for `CC(C)(O)c1cccc2c(C(=O)N3CCc4[nH]cnc4[C@H]3c3nc4ccccc4s3)cnn12` [Example 1481] was less than 0.5 µM. Regarding `CC(C)(O)c1nc(C(F)F)c(C(=O)N2CCc3[nH]cnc3[C@H]2c2nc3c(C(F)(F)F)cccc3s2)o1` [Example 2103, (S)-(4-(difluoromethyl)-2-(2-hydroxypropan-2-yl)oxazol-5-yl)(4-(4-(trifluoromethyl)benzo[d]thiazol-2-yl)-6,7-dihydro-1H-imidazo[4,5-c]pyridin-5(4H)-yl)methanone], the AC50 is less than 0.5 µM. On the same count and under the same terms, the value for `Cc1c(-c2ncc(C(=O)N3CCc4[nH]cnc4[C@@H]3c3nc4ccccc4s3)s2)cnn1C` [Example 1360, (R)-(4-(benzo[d]thiazol-2-yl)-6,7-dihydro-1H-imidazo[4,5-c]pyridin-5(4H)-yl)(2-(1,5-dimethyl-1H-pyrazol-4-yl)thiazol-5-yl)methanone] was 1 to 5 µM.

On to `O=C(c1ncc(Cl)s1)N1CCc2[nH]cnc2[C@@H]1c1nc2ccccc2[nH]1` [Example 920, (R)-(4-(1H-benzo[d]imidazol-2-yl)-6,7-dihydro-1H-imidazo[4,5-c]pyridin-5(4H)-yl)(5-chlorothiazol-2-yl)methanone], for which the concentration at half-maximal activity (AC50) was more than 5 µM. In the case of `O=C(c1oc(NC2CC2)nc1C(F)(F)F)N1CCc2[nH]cnc2[C@@H]1c1nc2c(F)cccc2s1` [Example 1596, (R)-(2-(cyclopropylamino)-4-(trifluoromethyl)oxazol-5-yl)(4-(4-fluorobenzo[d]thiazol-2-yl)-6,7-dihydro-1H-imidazo[4,5-c]pyridin-5(4H)-yl)methanone], the AC50 is less than 0.5 µM.

Regarding `O=C(c1nnc(-c2ccccn2)o1)N1CCc2[nH]cnc2[C@H]1c1nc2cccc(F)c2s1` [Example 1718, (S)-(4-(7-fluorobenzo[d]thiazol-2-yl)-6,7-dihydro-1H-imidazo[4,5-c]pyridin-5(4H)-yl)(5-(pyridin-2-yl)-1,3,4-oxadiazol-2-yl)methanone], the AC50 was less than 0.5 µM. For `O=C(c1ccnn1C(F)F)N1CCc2[nH]cnc2[C@@H]1c1nc2ccccc2s1` [Example 1818, (R)-(4-(benzo[d]thiazol-2-yl)-6,7-dihydro-1H-imidazo[4,5-c]pyridin-5(4H)-yl)(1-(difluoromethyl)-1H-pyrazol-5-yl)methanone], the concentration at half-maximal activity (AC50) is 1 to 5 µM. For the molecule `O=C(CC1CC1)N1CCc2[nH]cnc2[C@H]1c1nc2cccc(F)c2s1` [Example 1257, (S)-2-cyclopropyl-1-(4-(7-fluorobenzo[d]thiazol-2-yl)-6,7-dihydro-1H-imidazo[4,5-c]pyridin-5(4H)-yl)ethanone], the AC50 was less than 0.5 µM. `CN(C)Cc1ccc2c(C(=O)N3CCc4[nH]cnc4[C@@H]3c3nc4ccccc4s3)cnn2c1` [Example 1312, (R)-(4-(benzo[d]thiazol-2-yl)-6,7-dihydro-1H-imidazo[4,5-c]pyridin-5(4H)-yl)(6-((dimethylamino)methyl)pyrazolo[1,5-a]pyridin-3-yl)methanone]: the AC50 was more than 5 µM. On to `Cn1ncnc1C(=O)N1CCc2[nH]cnc2[C@H]1c1nc2ccccc2s1` [Example 1813], for which the AC50 lay within 0.5 to 1 µM.

With `Cc1ccc2sc([C@@H]3c4nc[nH]c4CCN3C(=O)c3cnco3)nc2c1` [Example 2173, (S)-(4-(5-methylbenzo[d]thiazol-2-yl)-6,7-dihydro-1H-imidazo[4,5-c]pyridin-5(4H)-yl)(oxazol-5-yl)methanone], the AC50 lay within 0.5 to 1 µM. As to `CC(C)(O)c1nc(C(F)F)c(C(=O)N2CCc3[nH]cnc3[C@@H]2c2nc3ccccc3s2)s1` [Example 2106, (R)-(4-(benzo[d]thiazol-2-yl)-6,7-dihydro-1H-imidazo[4,5-c]pyridin-5(4H)-yl)(4-(difluoromethyl)-2-(2-hydroxypropan-2-yl)thiazol-5-yl)methanone], the AC50 was less than 0.5 µM.

The assay is the same for the next values; noted with them: A375 cells expressing human R408W PAH; 24 hrs with compound; 13C-Tyrosine by LC-MS; average where tested multiple times; read-out: AC50.
Regarding `Cc1nc(C(C)(C)O)oc1C(=O)N1CC2(CC2)c2[nH]cnc2C1c1nc2ccccc2s1` (stereo not shown), the half-maximal activity concentration (AC50) lay within 1 to 5 µM. For the molecule `O=C(C1CC1)N1CCc2[nH]cnc2C1c1nc2ccc(F)cc2[nH]1` (stereo not shown), the AC50 is more than 5 µM. As to `Cc1nc(C=CC2CC2)oc1C(=O)N1CCCc2[nH]cnc2C1c1nc2ccccc2s1` (stereo not shown), the AC50 was more than 5 µM.

`CC1CN(C(=O)c2cnco2)C(c2nc3c(F)cccc3s2)c2nc[nH]c21` (stereo not shown): the half-maximal activity concentration (AC50) lay in the range of 1 to 5 µM. Same read-out and setting: the value for `O=C(CCc1ccc(F)cc1)N1CCc2[nH]cnc2C1c1nc2ccccc2[nH]1` (stereo not shown) was 1 to 5 µM; that for `O=C(c1ccccn1)N1CCc2[nH]cnc2[C@H]1c1nc2ccccc2[nH]1` [(S)-(4-(1H-benzo[d]imidazol-2-yl)-1,4,6,7-tetrahydro-5H-imidazo[4,5-c]pyridin-5-yl)(pyridin-2-yl)methanone] was 1 to 5 µM; that for `Cc1nc(N2CCOCC2)oc1C(=O)N1CCCc2[nH]cnc2C1c1nc2ccccc2s1` (stereo not shown) was more than 5 µM. Turning to `Cn1nc(C#N)cc1C(=O)N1CCc2[nH]cnc2C1c1nc2c(F)cccc2s1` (stereo not shown), the AC50 is more than 5 µM. The same measure, in the same setting: the same measure for `CN(C)Cc1ncc(C(=O)N2CCc3[nH]cnc3C2c2nc3ccccc3s2)o1` (stereo not shown): 1 to 5 µM.

Turning to `Cn1cc(-c2ncc(C(=O)N3CCc4[nH]cnc4[C@H]3c3nc4ccccc4[nH]3)o2)cn1` [(S)-(4-(1H-benzo[d]imidazol-2-yl)-6,7-dihydro-1H-imidazo[4,5-c]pyridin-5(4H)-yl)(2-(1-methyl-1H-pyrazol-4-yl)oxazol-5-yl)methanone hydrochloride], the AC50 is more than 5 µM. Turning to `Cc1nc(CCN2CC(F)C2)oc1C(=O)N1CCc2[nH]cnc2C1c1nc2ccccc2s1` (stereo not shown), the AC50 was in the range of 1 to 5 µM.

Take `CNC(C)(C)c1nc(C)c(C(=O)N2CCc3[nH]cnc3C2c2nc3c(F)cccc3s2)o1` (stereo not shown): the AC50 was in the range of 1 to 5 µM.

As for `O=C(c1nc2ccccc2s1)N1CCc2[nH]cnc2C1c1nc2cc(F)ccc2s1` (stereo not shown), the AC50 was 1 to 5 µM. Same read-out and setting: the value for `Cc1ncc(C(=O)N2CCc3[nH]cnc3[C@H]2c2nc3c(F)cccc3s2)o1` (single isomer, unassigned) was 1 to 5 µM.

With `O=C(c1oc(-c2ccccn2)nc1-c1ccccc1)N1CCc2[nH]cnc2C1c1nc2ccccc2s1` (stereo not shown), the AC50 was 1 to 5 µM. Take `O=C(Cc1nc(C(F)(F)F)cs1)N1CCc2[nH]cnc2C1c1nc2ccc(F)cc2s1` (stereo not shown): the AC50 was in the range of 1 to 5 µM. Same read-out and setting: the value for `CC(C)(O)c1cc(C(=O)N2CCc3[nH]cnc3C2c2nc3ccccc3s2)on1` (stereo not shown) was 1 to 5 µM.
